# Experimental data: a melting point compilation (Tetko et al.; mined from patent text by program, amines drawn as free bases though some values may be those of a salt)
row,SMILES,melting point
1,CC(=O)Nc1cc(-c2c(-c3cccc(C)c3)nc3ccc(Cl)nn23)ccn1,228 to 229 °C
2,COc1cc(COc2ccccc2CC(=O)O)ccc1OCc1nc(-c2ccccc2)oc1C,165 to 166 °C
3,CCOc1ccc(-c2ccc(=O)[nH]n2)cc1OC,172 °C
4,CC(C)(C)C(=O)Oc1ccc(C(O)c2ccc(OC(=O)C(C)(C)C)cc2)cc1,148 to 152 °C
5,CC#CCOc1ccc(S(=O)(=O)N(C)C2(C(=O)O)CCCCC2)cc1,124 to 126 °C
6,N#Cc1cn2cc(Br)nc(N3CCOCC3)c2n1,265 °C
7,COC(=O)CCCCCCc1nc(C)sc1C(=O)O,106 to 107 °C
8,Cn1c(C(F)(F)F)cc(=O)n(-c2nc(Cl)c(O)cc2F)c1=O,189 to 192 °C
9,CCCCCCCCCCCCCCCc1ccc(C(=O)O)c(O)c1,96 to 97 °C
10,CN1CCN(c2ccnc3c(NC(=O)c4c(Cl)cccc4Cl)ccc(Cl)c23)C1=O,259 to 263 °C
11,COc1cc(C2NC(=O)C(C)S2)cc(OC)c1OC (configuration not stated),133 to 134 °C
12,N#CC1(c2ccccc2)CCCCC1,120 to 122 °C
13,Fc1cc(F)nc(NCc2ccccc2)n1,70 to 73 °C
14,c1ccc(Cn2cc3c(c2)OCCO3)cc1,69 to 70 °C
15,COc1ccc2[nH]c(C(F)(F)F)c(C#N)c2c1,189 to 190 °C
16,NS(=O)(=O)c1cc(C2CO2)ccc1F (configuration not stated),100 to 103 °C
17,Clc1ccc2c(Nc3ccccc3)ncnc2c1,215 to 217 °C
18,O=C(Nc1ccccc1)NN1CCN(CCc2c[nH]c3ccccc23)CC1,168 to 171 °C
19,Nc1nc(SCC2CC2)c2ncn(C3C=CC(CO)C3)c2n1 (configuration not stated),125 to 127 °C
20,Cc1c(N2C(=O)C[C@H](O)[C@@H]2C)ccc(C#N)c1F,114 to 115 °C
21,Cn1c(=O)c2c(nc3n(Cc4ccccc4)c(=O)cc(O)n23)n(C)c1=O,206 to 209 °C

row,SMILES,melting point
1,CCOCc1nc2c(N)nc(C)c(C)c2n1CCCCS(N)(=O)=O,200 to 202 °C
2,CC1(C)C(=O)NC(=O)c2ccccc21,84 to 88 °C
3,Cc1oc(C=Cc2ccc(Cl)cc2)nc1CC#N,124 to 125 °C
4,COc1ccc(CC(=O)NC(NC(=NC#N)Nc2cccnc2OC)C(C)(C)C)cc1OC (configuration not stated),146 to 147 °C
5,CNc1cc(OC)cc(NCCOC)c1[N+](=O)[O-],84 °C
6,O=C(CC1CCC1)N[C@H]1CC[C@H](CCN2CCN(c3nccc4c3CCO4)CC2)CC1,193 °C
7,CCOC(=O)CC(=O)c1ccncn1,52.3 °C
8,Cc1ccc(C)n1-c1nc(S(=O)(=O)Nc2cccc(Cl)c2Cl)n[nH]1,185 °C
9,CCN(CC)CCCNc1nnc(C)c2c1cc1n2CCCC1,171 to 172 °C
10,CN(c1cccc2cc(C3=NCC(CC(C)(C)O)S3)[nH]c12)S(=O)(=O)c1cccs1 (configuration not stated),156 to 158 °C
11,O=C(O)C(=O)Nc1ccccc1C(=O)NC1CCN(C2CCCCC2)C1 (configuration not stated),268 to 270 °C
12,CCCNCc1cnc(-c2ncn3c2[C@@H]2CCN2C(=O)c2sccc2-3)o1,145 to 147 °C
13,CC(C)Oc1ccc(-n2c(C(=O)NCCNC(=O)OC(C)(C)C)c(Cl)c3cc(Oc4ccc(C(F)(F)F)cn4)ccc32)cc1,184 to 185 °C
14,COc1ccc2cccc(CO)c2c1,72 to 74 °C
15,COc1cccc2c1-c1c(ccn1CCNC(C)=O)CC2,132 to 133 °C
16,CC(=O)c1cc(-c2ccc(C)cc2)c2c(c1)C(C)(C)CCC2(C)C,102 °C
17,CCc1cc(=O)c(C(=O)c2ccccc2)c(C)[nH]1,169 to 170 °C
18,COC(=O)c1cc(-c2ccc(Cl)cc2)n(-c2ccc(Cl)cc2Cl)n1,167 °C
19,CCCCn1c(=O)c2cn(S(=O)(=O)c3ccc(C(F)(F)F)cc3)nc2n(CCCC)c1=O,151 to 153 °C
20,COC(=O)CCCCc1ccc(CCNC(C)=O)cc1,57 to 59 °C
21,CC12CCC3C(CCC4CC(=O)CCC43C)C1CC=C2c1cccnc1 (configuration not stated),190 to 192 °C
